Values joined by “and” are separate entries in the source; they are usually repeats but may differ in a detail not shown here. Equal values may be shown once.
Tests used:
spinal cord = assay: Hemostasis in a spinal cord injury (T2 hemisection); assay type: in vivo, rat; conditions: adult rats, 20 μl of 1% solution
Description: Under an operating microscope, the second thoracic spinal cord segment (T2) was identified before performing a dorsal laminectomy in anesthetized adult rats. After opening the dura mater, a right hemisection was performed using a ceramic knife. Immediately after the cord hemisection 20 μl of 1% solution of RADA16-I (SEQ ID NO: 60) (NHS-1) was applied to the area of the cut for bleeding control. The controls received a saline treatment. The animals were allowed to survive for up to 8 weeks as part of another experiment. The spinal environment and the brain environment were investigated for similarities or differences. Secondary damage caused by surgery can be reduced by quickly bringing bleeding under control. After laminectomy and removal of the dura, the spinal cord was hemisected at T2, from the dorsal to ventral aspect and treated (N=5) with 20 μl of 1% NHS-1. […] In the saline controls (n=5) it took on average 163 seconds to stop bleeding (FIG. 3a).

femoral artery = assay: Hemostasis in a high pressure femoral artery wound; assay type: in vivo, rat; conditions: two cases, data not shown
Description: Rats were placed on their backs and the hind limb was extended to expose the medial aspect of the thigh (FIG. 4b). The skin was removed and the overlying muscles were cut to expose the femoral artery and sciatic nerve. The femoral artery was cut to produce a high pressure bleeder. With a 27 gauge needle, 200 μl of 1% RADA16-I (SEQ ID NO: 60) (NHS-1) solution was applied over the site of injury. In two cases powder was applied to the injury site which also worked. (Data not shown and was not included in the analysis). Controls were treated with a combination of saline and pressure with a […]. All animals were sacrificed four hours after the experiment. The femoral artery of 14 adult rats was surgically exposed, transected and then treated with 200 μl of 1% solution of NHS-1 or iced saline and packing. The treated cases (n=10) took about 10 seconds to achieve hemostasis (FIG. 3a). The controls (n=4) continued to bleed more than 6 minutes. The difference in times to achieve complete hemostasis was highly significant (Student t test p<0.0001).

liver [1] = assay: Hemostasis in liver transverse cut severing a branch of the portal vein; assay type: in vivo; conditions: rat liver transverse cut
Description: Rats were anesthetized and placed on their back and the abdomen was opened exposing the liver (FIG. 4c). The left lobe of the liver was cut using a scalpel in the rostral to caudal direction separating the two halves of the lobe in the sagittal cut. With a 27 gauge needle, 100 μl of 1% or 2%, of RADA16-I (SEQ ID NO: 60) (NHS-1), RADA-12 (NHS-2), or EAK-16 (TM-3) solution was applied to the site of injury. Livers of the controls were treated with saline or cauterized. Cauterization was performed using a thermal cautery device and was applied to entire surface of the injury. In another group of adult rats the same procedure was followed for the liver, which was cut transversely (FIG. 4d). With a 27 gauge needle, 400 μl of 1%, 2%, 3%, or 4% of NHS-1, or TM-3 solution was applied to the site of injury.
In the second experiment a major branch of the portal vein was severed while making a transverse cut in the left lobe to test NHS-1 in a high flow rate environment. Four concentrations of NHS-1 were tested (n=12) along with (n=4) control animals. 400 μl of 4% concentration NHS-1 was applied and bleeding stopped in 11 seconds. The test was successfully duplicated with 400 μl of both 3% and 2% NHS-1 solution; bleeding ceased in 10 and 10.3 seconds, respectively (FIG. 3d). When 400 μl of 1% NHS-1 was applied, bleeding continued for more than 60 seconds (FIG. 3d). The controls, however, bled for over 6 minutes. […] A significant difference was found between the NHS-1 treated and control groups using ANOVA.
The increased blood flow from the portal vein after making a transverse liver cut allowed the performance of another dose response experiment where various concentrations of NHS-1 (1% to 4%) and TM-3 (1% to 3%) could be compared with controls (FIG. 3d). All concentrations of NHS-1 were effective; however the higher blood pressure and flow rate after the transverse liver cut required a concentration of 2% or higher of NHS-1 to stop bleeding in less than 15 seconds.

liver [2] = assay: Hemostasis in liver 4 mm punch biopsy; assay type: in vivo; conditions: rats allowed to survive for up to 6 months after 3% treatment
Description: In another group of anesthetized adult rats, the liver was exposed and a 4 mm punch biopsy from the ventral aspect through the liver to the dorsal surface of the left liver lobe. The resulting core was removed from the liver and one of three treatments was applied. In one treatment, 200 μl of a 3% NHS-1 solution was applied to the site of injury. In one control saline was applied to the site of injury. In a second control, the injury surface was cauterized. The superficial material was then wiped clear of the injury site. […]
In the third experiment using adult rats (n=45) 4 mm holes were punched through the left lateral lobe and then the area was treated with 3% NHS-1, saline or heat cautery to bring about hemostasis (FIG. 3b). […] In the heat cautery control group (n=15) cessation of bleeding took more than 60 seconds, inclusive of applying heat to cauterize the inside surface of the punch. […] Using ANOVA there was a significant difference between the 3% NHS-1 treatment and the controls (p<0.0001).

brain, lung, or liver = assay: Examination of treated animals for thrombi; assay type: in vivo
liver [3] = conditions: rat, in vivo
Description: (§1) In the brain and liver of anesthetized adult rats 1% or 2% of NHS-1 was injected immediately after making a cut and the treatment site was sampled. Samples were fixed in a mixture of 2% para-formaldehyde and 2.5% glutaraldehyde in 0.1M PB for 4 hours. The samples were washed in 0.1M PB buffer 10 min×3 at 4° C. and embedded in 2% agar. Agar blocks were post fixed in 1% osmium tetroxide for 2 hrs at 4° C. and then washed in buffer for 10 min×3 at 4° C. The sample blocks were dehydrated in ethanol infiltrated and embedded in pure epon with Lynx EM tissue processor. Ultra-thin 70 nm sections were cut (Reichert-Jung ultra cut) and collected on #200 mesh grids. Sections and grids were stained with uranyl acetate and lead citrate and examined under Philip EM208S transmission electron microscope.
Still looking for mechanism clues as well as further understanding of the relationship of the NHS-1 blood/tissue interface in both the brain and liver, the treated tissues were examined under the transmission electron microscope (TEM), to determine how the red blood cells (RBCs), platelets, tissue and the ECM interact with the material.
A 1% NHS-1 solution was applied to a liver wound and immediately harvested the tissue.

brain = conditions: rat, in vivo
Description: as §1

n-RADARADARADARADA-c [NHS-1]
time to hemostasis (spinal cord): 7.6 s
hemostasis with powder applied to the injury site (femoral artery): also worked
hemostasis after removing the excess assembled material (liver [1]; 2%, 3% and 4% concentration): complete hemostasis was maintained
time to hemostasis (liver [1]; 400 μl of 2% solution): 10.3 s and 10.3 ± 0.5 s
time to hemostasis (liver [1]; 400 μl of 3% solution): 10 s and 10.0 ± 1.0 s
time to hemostasis (liver [1]; 400 μl of 4% solution): 11 s and 11.0 ± 1.0 s
concentration required for complete hemostasis in less than 15 seconds (liver [1]; higher blood pressure/flow rate): ≥ 2%
hemostatic effectiveness over the concentrations tested (liver [1]; NHS-1 1% to 4%, TM-3 1% to 3%): effective
effect on the tissues in surviving animals (liver [2]): no detrimental effect on the tissues
thrombi in the brain, lung, or liver (brain, lung, or liver): no evidence of thrombi
lysing of RBCs at the interface (liver [3]): no evidence of lysing
platelet aggregation at the blood/NHS-1 interface (liver [3]): no evidence of platelet aggregation
lysing of RBCs at the edges of the assembled material (brain): no evidence of lysing
platelet aggregation in the assembled material (brain): no evidence of platelet aggregation

Reference: patent US9415084B2, “Treatment of leaky or damaged tight junctions and enhancing extracellular matrix” (Arch Biosurgery, Inc., priority 2007, dated 2016)
